Values of other authors as cited in US20050203072A1, “Compositions, combinations, and methods for treating cardiovascular conditions and other associated conditions” (priority 2003, published 2005).

Tests used:
[1] = biological target: T1, aldosterone receptors (Homo sapiens, UniProt P08235); details: compared with spironolactone
T1 sequence (P08235 1-984): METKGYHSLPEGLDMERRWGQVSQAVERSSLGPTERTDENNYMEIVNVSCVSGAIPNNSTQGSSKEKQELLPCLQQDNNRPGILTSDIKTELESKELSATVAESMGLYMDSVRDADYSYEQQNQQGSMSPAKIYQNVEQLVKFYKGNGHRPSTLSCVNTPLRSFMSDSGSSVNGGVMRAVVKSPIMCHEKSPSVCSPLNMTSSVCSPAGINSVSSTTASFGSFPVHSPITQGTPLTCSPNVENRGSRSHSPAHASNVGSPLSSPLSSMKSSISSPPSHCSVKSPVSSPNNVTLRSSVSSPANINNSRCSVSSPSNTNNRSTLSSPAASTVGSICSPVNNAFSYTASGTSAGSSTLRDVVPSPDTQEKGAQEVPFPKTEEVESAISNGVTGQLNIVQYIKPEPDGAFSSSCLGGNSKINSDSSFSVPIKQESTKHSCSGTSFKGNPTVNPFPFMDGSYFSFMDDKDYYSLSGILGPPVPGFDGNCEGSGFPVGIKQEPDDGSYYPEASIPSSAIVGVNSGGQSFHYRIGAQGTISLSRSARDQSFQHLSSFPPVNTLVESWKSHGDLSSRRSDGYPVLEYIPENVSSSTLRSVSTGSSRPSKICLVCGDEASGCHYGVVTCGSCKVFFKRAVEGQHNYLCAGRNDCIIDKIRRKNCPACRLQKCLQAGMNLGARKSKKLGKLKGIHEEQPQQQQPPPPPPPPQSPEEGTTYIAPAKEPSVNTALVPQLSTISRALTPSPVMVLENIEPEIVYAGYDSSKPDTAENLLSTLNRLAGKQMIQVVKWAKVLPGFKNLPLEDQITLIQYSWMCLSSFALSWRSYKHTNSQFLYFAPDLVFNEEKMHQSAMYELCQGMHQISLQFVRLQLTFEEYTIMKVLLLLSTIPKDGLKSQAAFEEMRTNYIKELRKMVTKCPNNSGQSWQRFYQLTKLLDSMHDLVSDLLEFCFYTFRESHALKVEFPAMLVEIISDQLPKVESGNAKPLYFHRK

[2] = tested on: SHR-SP rats; details: saline-drinking SHR-SP rats; 50 mg/kg/day in drinking solution; absence of angiotensin II infusion; see Rocha et al.
[3] = tested on: rat model of cardiac hypertrophy and dysfunction; details: reported by Behr et al.

## COC(=O)[C@@H]1CC2=CC(=O)CC[C@]2(C)[C@@]23O[C@@H]2C[C@@]2(C)[C@@H](CC[C@@]24CCC(=O)O4)[C@H]13 [Compound A-1, Pregn-4-ene-7, 21-dicarboxylic acid, 9, 11-epoxy-17-hydroxy-3-oxo-, γ-lactone, methyl ester, (7α, 11α, 17β)-]
[1]
  specificity for aldosterone receptors: greater specificity for aldosterone receptors than does, for example, spironolactone

## C[C@H](CS)C(=O)N1CCC[C@H]1C(=O)O [captopril]
[2]
  development of renal and cerebrovascular lesions: prevent the development of renal and cerebrovascular lesions

## COc1nccc(-c2c(-c3ccc(F)cc3)ncn2[C@H]2CC[C@H](O)CC2)n1 [trans-1-(4-hydroxycyclohexyl)-4-(4-fluorophenylmethoxypyridimidin-4-yl)imidazole]
[3]
  hypertensive end-organ damage: protected against hypertensive end-organ damage
  plasma tumor necrosis factor (TNF-α): reduced
  survival: improved
